Legend:
TYRO3 = biological target: T1, TYRO3 (Homo sapiens, UniProt Q06418); experiment: TR-FRET kinase activity assay, TYRO3; assay type: biochemical; conditions: ATP at Km, 60 minutes
T1 sequence (Q06418 41-890): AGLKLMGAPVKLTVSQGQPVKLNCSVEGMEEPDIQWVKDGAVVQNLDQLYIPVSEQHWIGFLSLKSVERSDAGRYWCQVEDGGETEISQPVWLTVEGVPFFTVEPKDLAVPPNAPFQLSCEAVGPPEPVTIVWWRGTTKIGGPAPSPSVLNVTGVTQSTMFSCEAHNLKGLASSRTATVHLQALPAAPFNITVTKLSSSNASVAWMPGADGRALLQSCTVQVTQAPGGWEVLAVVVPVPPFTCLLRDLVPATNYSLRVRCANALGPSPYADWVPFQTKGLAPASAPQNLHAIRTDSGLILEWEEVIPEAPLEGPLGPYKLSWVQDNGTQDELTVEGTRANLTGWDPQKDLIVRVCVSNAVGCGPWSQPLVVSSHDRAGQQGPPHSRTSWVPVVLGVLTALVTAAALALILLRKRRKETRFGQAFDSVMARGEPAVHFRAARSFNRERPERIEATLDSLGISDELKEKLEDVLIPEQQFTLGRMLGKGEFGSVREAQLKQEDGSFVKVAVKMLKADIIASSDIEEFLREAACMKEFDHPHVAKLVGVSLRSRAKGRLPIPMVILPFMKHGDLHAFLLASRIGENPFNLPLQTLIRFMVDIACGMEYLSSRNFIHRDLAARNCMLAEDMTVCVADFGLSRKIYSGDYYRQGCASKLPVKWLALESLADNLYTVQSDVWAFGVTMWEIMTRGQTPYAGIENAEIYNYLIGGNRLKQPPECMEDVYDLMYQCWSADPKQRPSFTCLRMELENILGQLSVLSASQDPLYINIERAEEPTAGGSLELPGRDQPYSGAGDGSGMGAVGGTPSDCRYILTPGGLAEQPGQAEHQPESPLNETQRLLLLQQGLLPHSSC
Summary of the method: (§1)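 Inhibition is measured as loss of phospho-peptide formation: kinase, fluorescent tyrosine peptide and compound are combined, ATP is added at Km, and the reaction proceeds 60 min at RT in pH 7.5 HEPES buffer. An EDTA stop and Eu-labelled phospho-specific antibody allow TR-FRET detection for IC50 fitting.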

FLT3 = biological target: T2, FLT3 (Homo sapiens, UniProt P36888); experiment: TR-FRET kinase activity assay, FLT3; assay type: biochemical; conditions: ATP at Km, 60 minutes
T2 sequence (P36888 27-993): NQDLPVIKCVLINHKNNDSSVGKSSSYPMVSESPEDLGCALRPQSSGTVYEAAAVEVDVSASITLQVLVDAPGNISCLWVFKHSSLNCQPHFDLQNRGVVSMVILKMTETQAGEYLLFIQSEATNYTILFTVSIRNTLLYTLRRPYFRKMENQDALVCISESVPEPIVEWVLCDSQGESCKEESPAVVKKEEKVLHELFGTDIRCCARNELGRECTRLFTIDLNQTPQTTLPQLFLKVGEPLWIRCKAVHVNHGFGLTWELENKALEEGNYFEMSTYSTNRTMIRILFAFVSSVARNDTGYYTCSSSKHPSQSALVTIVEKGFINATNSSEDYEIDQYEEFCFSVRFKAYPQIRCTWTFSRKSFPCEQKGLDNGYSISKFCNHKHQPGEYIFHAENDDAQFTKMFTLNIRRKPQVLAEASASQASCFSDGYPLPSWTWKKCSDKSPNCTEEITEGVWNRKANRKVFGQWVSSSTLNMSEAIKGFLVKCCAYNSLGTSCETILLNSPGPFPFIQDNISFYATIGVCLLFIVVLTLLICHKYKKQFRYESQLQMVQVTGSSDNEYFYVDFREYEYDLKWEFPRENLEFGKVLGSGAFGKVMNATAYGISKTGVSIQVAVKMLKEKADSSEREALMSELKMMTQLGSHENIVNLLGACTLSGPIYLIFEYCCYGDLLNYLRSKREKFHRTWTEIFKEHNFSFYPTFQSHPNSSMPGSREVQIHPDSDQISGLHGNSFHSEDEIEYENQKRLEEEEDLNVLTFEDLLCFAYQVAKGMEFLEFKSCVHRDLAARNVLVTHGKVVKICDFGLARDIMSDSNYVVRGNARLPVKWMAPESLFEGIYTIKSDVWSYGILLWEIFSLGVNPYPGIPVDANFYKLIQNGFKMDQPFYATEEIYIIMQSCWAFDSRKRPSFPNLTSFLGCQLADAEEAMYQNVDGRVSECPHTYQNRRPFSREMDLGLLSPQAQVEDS
Summary of the method: as §1

Row | IC50 (TYRO3) [nM] | IC50 (FLT3) [nM] | SMILES
1 | ≤ 100 | 100 to 1000 | COC[C@H](C)Nc1ncc2c(-c3cnn([C@@H]4CO[C@H]5OCC[C@H]54)c3)cc([C@H]3CC[C@H](O)CC3)n2n1 [Compound 422]
2 | ≤ 100 | ≤ 100 | O[C@H]1CC[C@H](c2cc(-c3ccnc(N4CCOCC4)c3)c3cnc(N[C@H]4CCOC4)nn32)CC1 [Compound 362]
3 | ≤ 100 | ≤ 100 | CC(=O)N1CCN(Cc2ccc(-c3cc(C4CCC(O)CC4)n4nc(NC(C)CC(F)(F)F)ncc34)cc2)CC1 (stereo not drawn) [Compound 370]
4 | ≤ 100 | ≤ 100 | O[C@H]1CC[C@H](c2cc(-c3ccnc(N4CCOCC4)c3)c3cnc(NCCC(F)(F)F)nn32)CC1 [Compound 363]
5 | ≤ 100 | ≤ 100 | CNC(=O)c1cc(-c2cc([C@H]3CC[C@H](O)CC3)n3nc(N[C@@H](C)CC(F)(F)F)ncc23)ccn1 [Compound 384]
6 | ≤ 100 | 100 to 1000 | COC[C@H](C)Nc1ncc2c(-c3ccnc(OC4CCNCC4)c3)cc([C@H]3CC[C@H](O)CC3)n2n1 [Compound 369]
7 | ≤ 100 | 1000 to 10000 | COCC(C)Nc1ncc2c(C3CCN(C(C)=O)C3)cc(C3CCC(O)CC3)n2n1 (mixture of isomers) [Compound 383]
8 | ≤ 100 | 100 to 1000 | COC[C@H](C)Nc1ncc2c(-c3ccnc(O[C@@H]4CCCN(C)C4)c3)cc([C@H]3CC[C@H](O)CC3)n2n1 [Compound 404]
9 | 100 to 1000 | 1000 to 10000 | CCC(C)Nc1ncc2c(C)cc(C3CCC(O)CC3)n2n1 (stereo not drawn) [Compound 123]
10 | ≤ 100 | 100 to 1000 | COCC(C)Nc1ncc2c(-c3cnn(CC4CCCO4)c3)cc(C3CCC(O)CC3)n2n1 (stereo not drawn) [Compound 379]
11 | ≤ 100 | ≤ 100 | OC1CCC(c2cc(-c3ccnc(N4CCOCC4)c3)c3cnc(NCCC4CC4)nn23)CC1 (stereo not drawn) [Compound 359]
12 | ≤ 100 | ≤ 100 | C[C@@H](COC(F)F)Nc1ncc2c(-c3ccnc(N4CCOCC4)c3)cc([C@H]3CC[C@H](O)CC3)n2n1 [Compound 405]
13 | ≤ 100 | 1000 to 10000 | COC[C@H](C)Nc1ncc2c(-c3ccnc(C)c3)cc([C@H]3CC[C@@](C)(O)CC3)n2n1 [Compound 381]
14 | ≤ 100 | 100 to 1000 | COC[C@H](C)Nc1ncc2c(-c3cnn(CS(C)(=O)=O)c3)cc([C@H]3CC[C@H](O)CC3)n2n1 [Compound 419]
15 | ≤ 100 | 1000 to 10000 | COC[C@H](C)Nc1ncc2c([C@H]3CCCN(c4ccnc(C)n4)C3)cc([C@H]3CC[C@H](O)CC3)n2n1 [Compound 377]
16 | ≤ 100 | ≤ 100 | OC1CCC(c2cc(-c3ccnc(N4CCOCC4)c3)c3cnc(NC4CCOC4)nn23)CC1 (stereo not drawn) [Compound 356]
17 | ≤ 100 | 100 to 1000 | COC[C@H](C)Nc1ncc2c(-c3ccnc(O[C@@H]4CCCNC4)c3)cc([C@H]3CC[C@H](O)CC3)n2n1 [Compound 390]
18 | ≤ 100 | 100 to 1000 | COC[C@H](C)Nc1ncc2c(-c3cnn(CC4COC4)c3)cc([C@H]3CC[C@H](O)CC3)n2n1 [Compound 420]
19 | ≤ 100 | 100 to 1000 | COC[C@H](C)Nc1ncc2c(-c3ccc(CN4CCN(C)CC4)cc3)cc([C@H]3CC[C@H](O)CC3)n2n1 (single isomer, unassigned) [Compound 124]
20 | ≤ 100 | 1000 to 10000 | CC[C@H](C)Nc1ncc2c(-c3cncc(S(C)(=O)=O)c3)cc([C@H]3CC[C@H](O)CC3)n2n1 [Compound 119]

Row | IC50 (TYRO3) [nM] | IC50 (FLT3) [nM] | SMILES
21 | ≤ 100 | 100 to 1000 | COC[C@H](C)Nc1ncc2c(-c3cnn([C@H]4CCC(C(=O)OC(C)(C)C)C4)c3)cc([C@H]3CC[C@H](O)CC3)n2n1 (stereo partly drawn) [Compound 365]
22 | ≤ 100 | 100 to 1000 | COC[C@H](C)Nc1ncc2c(-c3ccnc(O[C@H]4CCNC4)c3)cc([C@H]3CC[C@H](O)CC3)n2n1 [Compound 386]
23 | ≤ 100 | 100 to 1000 | COC[C@H](C)Nc1ncc2c(-c3ccnc(C)c3)cc([C@H]3CC[C@](C)(O)CC3)n2n1 [Compound 391]
24 | ≤ 100 | 1000 to 10000 | COC[C@H](C)Nc1ncc2c(-c3cc([C@H]4CC[C@H](O)CC4)n4nc(N[C@@H](C)COC)ncc34)cc([C@H]3CC[C@H](O)CC3)n2n1 [Compound 349]
25 | ≤ 100 | 1000 to 10000 | COC[C@H](C)Nc1ncc2c(-c3ccnc(OC4COC4)c3)cc([C@H]3CC[C@H](O)CC3)n2n1 [Compound 358]
26 | ≤ 100 | 100 to 1000 | CNc1cc(-c2cc([C@H]3CC[C@H](O)CC3)n3nc(N[C@@H](C)COC)ncc23)ccn1 [Compound 354]
27 | ≤ 100 | 100 to 1000 | CNC(=O)c1cc(-c2cc([C@H]3CC[C@H](O)CC3)n3nc(N[C@@H](C)COC(F)F)ncc23)ccn1 [Compound 411]
28 | 100 to 1000 | 1000 to 10000 | COCC(C)Nc1ncc2c(C3CCCN(C(C)=O)C3)cc(C3CCC(O)CC3)n2n1 (stereo not drawn) [Compound 371]
29 | ≤ 100 | 100 to 1000 | COC[C@H](C)Nc1ncc2c(-c3cnn(CC4CCCO4)c3)cc([C@H]3CC[C@H](O)CC3)n2n1 (stereo partly drawn) [Compound 380]
30 | ≤ 100 | 1000 to 10000 | COCC(C)Nc1ncc2c(-c3cnn(C(C)(C)C(=O)N4CCOC(C)(C)C4)c3)cc(C3CCC(O)CC3)n2n1 (stereo not drawn) [Compound 366]
31 | ≤ 100 | 1000 to 10000 | COC[C@H](C)Nc1ncc2c(-c3cnn(C(C)(C)C(=O)N4C[C@@H](C)O[C@H](C)C4)c3)cc([C@H]3CC[C@H](O)CC3)n2n1 [Compound 367]
32 | ≤ 100 | 1000 to 10000 | CNC(=O)c1cc(-c2cc([C@H]3CC[C@H](O)CC3)n3nc(N[C@@H](C)COC(F)F)ncc23)cc(C)n1 [Compound 385]
33 | ≤ 100 | 1000 to 10000 | COCC(C)Nc1ncc2c(C3CCN(c4ccnc(C)n4)C3)cc(C3CCC(O)CC3)n2n1 (stereo not drawn) [Compound 373]
34 | ≤ 100 | 100 to 1000 | COC[C@H](C)Nc1ncc2c(-c3cnn(C4CCN(C)C4=O)c3)cc([C@H]3CC[C@H](O)CC3)n2n1 (stereo partly drawn) [Compound 394, 3-(4-(7-((trans)-4-hydroxycyclohexyl)-2-(((S)-1-methoxypropan-2-yl)amino)pyrrolo[2,1-f][1,2,4]triazin-5-yl)-1H-pyrazol-1-yl)-1-methylpyrrolidin-2-one]
35 | ≤ 100 | 100 to 1000 | COC[C@H](C)Nc1ncc2c(-c3cnn([C@@H]4CCN(C(C)=O)C4)c3)cc([C@H]3CC[C@H](O)CC3)n2n1 [Compound 396]
36 | ≤ 100 | 100 to 1000 | COC[C@H](C)Nc1ncc2c(-c3cnn(CC4CC(=O)N(C)C4)c3)cc([C@H]3CC[C@H](O)CC3)n2n1 (stereo partly drawn) [Compound 395]
37 | ≤ 100 | ≤ 100 | COC[C@H](C)Nc1ncc2c(-c3ccnc(N4CCOCC4)c3)cc([C@H]3CC[C@H](O)CC3)n2n1 [Compound 355]
38 | ≤ 100 | 1000 to 10000 | CNC(=O)c1cncc(-c2cc([C@H]3CC[C@H](O)CC3)n3nc(N[C@@H](C)COC(F)F)ncc23)c1 [Compound 398]
39 | ≤ 100 | 1000 to 10000 | COC[C@H](C)Nc1ncc2c(-c3cnn(C4(C(=O)N5CCOCC5)CC4)c3)cc([C@H]3CC[C@H](O)CC3)n2n1 [Compound 414]

Reference: patent US11040981B2, “Pyrrolotriazine compounds and methods of inhibiting TAM kinases” (Syros Pharmaceuticals, Inc., priority 2017, dated 2021)
